Tested on: BRM-dependent transcription (BRG1 mutant lung cancer cell line A549)
Assay: BRM-dependent transcription, MMTV luciferase reporter in BRG1 mutant A549 cells
Type: cell-based
Details: Table 11; for IC50: A549-MMTV luciferase reporter, dexamethasone induced, 6 hours; for Ratio (MDA-MMTV IC50 (μM) divided by A549-MMTV IC50 (μM)): MMTV luciferase reporter cell lines, selectivity BRG1/BRM
Summary of the method: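 A549 (BRG1-mutant) cells engineered with a BRM-dependent MMTV luciferase reporter; transcription induced with dexamethasone in presence of compound at various concentrations. Luminescence read 6 h after stimulation.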

| Structure (SMILES) | IC50 | Ratio (MDA-MMTV IC50 (μM) divided by A549-MMTV IC50 (μM)) | IC50 (Homo sapiens, A549, 6 h) |
| --- | --- | --- | --- |
| CCOc1nc([C@H](F)CF)ccc1-c1ccc2cnc(CNC(=O)c3cc(C(F)F)c4c(c3)S(=O)(=O)[C@@H](F)COC4)cc2n1 [Compound 460] | 0.01 µM | 41.47 |  |
| COc1nc([C@](C)(F)C(F)F)ccc1-c1ccc2cnc(CNC(=O)c3cc(F)c4c(c3)S(=O)(=O)[C@@H](F)CCOC4)cc2n1 [Compound 367] |  | 17.70 | 0.003 µM |
| [2H]C([2H])([2H])[C@@]([2H])(F)c1ccc(-c2ccc3cnc(CNC(=O)c4cc(Br)c5c(c4)S(=O)(=O)[C@@H](F)COC5)cc3n2)c(OC)n1 [Compound 502] |  | 38.00 | 0.0096 µM |
| [2H]C([2H])([2H])C([2H])([2H])Oc1nc(C(C)(F)F)ccc1-c1ccc2cnc(CNC(=O)c3cc(Cl)c4c(c3)S(=O)(=O)[C@@H](F)COC4)cc2n1 [Compound 499] |  | 24.97 | 0.015 µM |
| O=C(NCc1cc2nc(-c3cccc(C(F)(F)F)n3)ccc2cn1)c1cc(F)c2c(c1)S(=O)(=O)[C@@H](F)CCO2 [Compound 335] |  | 30.32 | 0.0163 µM |
| Cc1cc(C(=O)NCc2cc3nc(-c4ccc(OC(F)F)c(C5CC5)n4)ccc3cn2)cc2c1COC[C@H](F)S2(=O)=O [Compound 413] |  | 27.54 | 0.0062 µM |
| O=C(NCc1cc2nc(-c3ccc([C@H](F)C(F)F)c(C4CC4)n3)ccc2cn1)c1cc(C(F)F)c2c(c1)S(=O)(=O)[C@@H](F)COC2 [Compound 490] |  | 26.59 | 0.0079 µM |
| CN(C)c1nccc(-c2ccc3cnc(CNC(=O)c4cc(F)c5c(c4)S(=O)(=O)[C@@H](F)CCO5)cc3n2)n1 [Compound 349] |  | 34.91 | 0.013 µM |
| COCCOc1nn(-c2ccc3cnc(CNC(=O)c4cc(Cl)c5c(c4)S(=O)(=O)[C@@H](F)COC5)cc3n2)cc1F [Compound 512] |  | 23.26 | 0.01 µM |
| CCOc1ccc(-c2ccc3cnc(CNC(=O)c4cc(Cl)c5c(c4)S(=O)(=O)[C@@H](F)CCO5)cc3n2)nc1C1CC1(F)F (some centres unmarked) [Compound 370] |  | 27.27 | 0.0205 µM |
| O=C(NCc1cc2nc(-c3cccc(OC(F)F)c3F)ccc2cn1)c1cc(Cl)c2c(c1)S(=O)(=O)[C@@H](F)COC2 [Compound 444] |  | 24.79 | 0.0226 µM |
| O=C(NCc1cc2nc(-c3cccc(OC(F)(F)F)n3)ccc2cn1)c1cc(F)c2c(c1)S(=O)(=O)[C@@H](F)CCO2 [Compound 361] |  | 22.13 | 0.0179 µM |
| COCCOc1cnc2c(c1)OCCN2c1ccc2cnc(CNC(=O)c3cc(Br)c4c(c3)S(=O)(=O)[C@@H](F)COC4)cc2n1 [Compound 426] |  | 25.72 | 0.0102 µM |
| O=C(NCc1cc2nc(-c3ccc(C(F)F)c(N4CC(F)C4)n3)ccc2cn1)c1cc(F)c2c(c1)S(=O)(=O)[C@@H](F)CCO2 [Compound 441] |  | 21.14 | 0.0089 µM |
| CCOc1nccc2c1OCCN2c1ccc2cnc(CNC(=O)c3cc(Cl)c4c(c3)S(=O)(=O)[C@@H](F)COC4)cc2n1 [Compound 477] |  | 52.71 | 0.0074 µM |
| CCOc1nn(-c2ccc3cnc(CNC(=O)c4cc(C(F)F)c5c(c4)S(=O)(=O)[C@@H](F)COC5)cc3n2)cc1F [Compound 501] |  | 30.55 | 0.013 µM |
| CCOc1nc(C(C)(F)F)ccc1-c1ccc2cnc(CNC(=O)c3cc(F)c4c(c3)S(=O)(=O)[C@@H](F)COC4)cc2n1 [Compound 471] | 0.0082 µM | 25.44 |  |
| C[C@@H]1CCN1c1cnc2c(-c3ccc4cnc(CNC(=O)c5cc(F)c6c(c5)S(=O)(=O)[C@@H](F)COC6)cc4n3)cccc2c1 [Compound 470] | 0.0041 µM | 29.42 |  |
| O=C(NCc1cc2nc(-c3ccc([C@@H](F)C(F)F)c(C4CC4)n3)ccc2cn1)c1cc(Br)c2c(c1)S(=O)(=O)[C@@H](F)COC2 [Compound 483] |  | 28.21 | 0.0111 µM |
| O=C(NCc1cc2nc(-c3ccc(OC(F)F)c(C4CC4)n3)ccc2cn1)c1cc(C(F)F)c2c(c1)S(=O)(=O)[C@@H](F)COC2 [Compound 415] |  | 35.99 | 0.0076 µM |
| COCCOc1cnc2c(c1)CCCN2c1ccc2cnc(CNC(=O)c3cc(Cl)c4c(c3)S(=O)(=O)[C@@H](F)COC4)cc2n1 [Compound 412] |  | 21.10 | 0.0119 µM |
| C=Cc1cc(C(=O)NCc2cc3nc(-c4cccc(N5C[C@@H](C)O[C@@H](C)C5)n4)ccc3cn2)cc2c1OCC[C@H](F)S2(=O)=O [Compound 407] |  | 29.00 | 0.0117 µM |

| Structure (SMILES) | IC50 | Ratio (MDA-MMTV IC50 (μM) divided by A549-MMTV IC50 (μM)) | IC50 (Homo sapiens, A549, 6 h) |
| --- | --- | --- | --- |
| O=C(NCc1cc2nc(-c3cccc(C4CC4)n3)ccc2cn1)c1cc(Br)c2c(c1)S(=O)(=O)[C@@H](F)COC2 [Compound 417] |  | 39.11 | 0.0275 µM |
| O=C(NCc1cc2nc(-c3ccc(C(F)F)c(C4CC4(F)F)n3)ccc2cn1)c1cc(F)c2c(c1)S(=O)(=O)[C@@H](F)CCO2 (some centres unmarked) [Compound 399] |  | 24.67 | 0.0129 µM |
| COc1nc([C@@H](F)CF)ccc1-c1ccc2cnc(CNC(=O)c3cc(Cl)c4c(c3)S(=O)(=O)[C@@H](F)COC4)cc2n1 [Compound 381] |  | 29.06 | 0.0068 µM |
| COc1nc(C(F)F)ccc1-c1ccc2cnc(CNC(=O)c3cc(Br)c4c(c3)S(=O)(=O)[C@@H](F)CCO4)cc2n1 [Compound 365] |  | 24.82 | 0.0213 µM |
| C[C@@H]1CN(c2cccc(-c3cnc4cnc(CNC(=O)c5cc(F)c6c(c5)S(=O)(=O)[C@@H](F)CCO6)cc4n3)n2)C[C@H](C)O1 [Compound 405, (4R)—N-[[2-[6-[(2R,6S)-2,6-dimethylmorpholin-4-yl]-2-pyridyl]pyrido[3,4-b]pyrazin-7-yl]methyl]-4,9-difluoro-5,5-dioxo-3,4-dihydro-2H-1,5λ6-benzoxathiepine-7-carboxamide] |  | 22.10 | 0.0028 µM |
| COCc1ccc(-c2ccc3cnc(CNC(=O)c4cc(Cl)c5c(c4)S(=O)(=O)[C@@H](F)COC5)cc3n2)nc1C1CC1 [Compound 422] |  | 23.20 | 0.0244 µM |
| O=C(NCc1cc2nc(-c3ccc(OCCO)c(C4CC4)n3)ccc2cn1)c1cc(Cl)c2c(c1)S(=O)(=O)[C@@H](F)COC2 [Compound 428] |  | 26.26 | 0.0203 µM |
| C[C@@H]1CCN1c1cnc2c(-c3ccc4cnc(CNC(=O)c5cc(Cl)c6c(c5)S(=O)(=O)[C@@H](F)COC6)cc4n3)cccc2c1 [Compound 497] | 0.0124 µM | 29.41 |  |
| COc1nc([C@@](C)(F)C(F)F)ccc1-c1ccc2cnc(CNC(=O)c3cc(F)c4c(c3)S(=O)(=O)[C@@H](F)CCOC4)cc2n1 [Compound 368] |  | 17.34 | 0.0022 µM |
| CCOc1nc([C@H](C)F)ccc1-c1ccc2cnc(CNC(=O)c3cc(F)c4c(c3)S(=O)(=O)[C@@H](F)CCO4)cc2n1 [Compound 375] |  | 36.69 | 0.0065 µM |
| CCOc1nc([C@@H](F)CF)ccc1-c1ccc2cnc(CNC(=O)c3cc(Br)c4c(c3)S(=O)(=O)[C@@H](F)COC4)cc2n1 [Compound 456] | 0.0097 µM | 40.89 |  |
| O=C(NCc1cc2nc(-c3ccnc(C4CC4(F)F)n3)ccc2cn1)c1cc(Cl)c2c(c1)S(=O)(=O)[C@@H](F)COC2 (some centres unmarked) [Compound 420] |  | 24.69 | 0.0257 µM |
| COc1nc([C@H](F)CF)ccc1-c1ccc2cnc(CNC(=O)c3cc(Cl)c4c(c3)S(=O)(=O)[C@@H](F)COC4)cc2n1 [Compound 380] |  | 33.44 | 0.0091 µM |
| [2H]C1([2H])OC([2H])([2H])[C@H](F)S(=O)(=O)c2cc(C(=O)NCc3cc4nc(-c5cccc(OC(F)F)n5)ccc4cn3)cc(F)c21 [Compound 379] |  | 22.55 | 0.02 µM |
| CCOc1nc(C(C)(F)F)ccc1-c1ccc2cnc(CNC(=O)c3cc(Cl)c4c(c3)S(=O)(=O)[C@@H](F)COC4)cc2n1 [Compound 445] |  | 22.07 | 0.0212 µM |
| CCOc1nc(C(C)(F)F)ccc1-c1ccc2cnc(CNC(=O)c3cc(F)c4c(c3)S(=O)(=O)[C@@H](F)COC4)cc2n1 [Compound 468] | 0.0042 µM | 25.28 |  |
| O=C(NCc1cc2nc(-c3ccnc(C4CC4)n3)ccc2cn1)c1cc(F)c2c(c1)S(=O)(=O)[C@@H](F)CCO2 [Compound 344] |  | 25.42 | 0.0186 µM |
| CCOc1nc([C@@H](F)CF)ccc1-c1ccc2cnc(CNC(=O)c3cc(Cl)c4c(c3)S(=O)(=O)[C@@H](F)COC4)cc2n1 [Compound 475] |  | 37.21 | 0.0071 µM |
| O=C(NCc1cc2nc(-c3ccc([C@@H](F)C(F)F)c(C4CC4)n3)ccc2cn1)c1cc(C(F)F)c2c(c1)S(=O)(=O)[C@@H](F)COC2 [Compound 476] |  | 21.45 | 0.0224 µM |
| [2H]C([2H])([2H])OC([2H])([2H])C([2H])([2H])Oc1cnc2c(c1)OCCN2c1ccc2cnc(CNC(=O)c3cc(C(F)F)c4c(c3)S(=O)(=O)[C@@H](F)COC4)cc2n1 [Compound 500] |  | 21.12 | 0.0077 µM |
| O=C(NCc1cc2nc(-c3cccc(OC(F)F)n3)ccc2cn1)c1cc(C(F)F)c2c(c1)S(=O)(=O)[C@@H](F)COC2 [Compound 404] |  | 36.02 | 0.0156 µM |

From patent publication US12139487B2, “Compounds and uses thereof” (Foghorn Therapeutics Inc., priority 2022, dated 2024)
